The source of these data is paper PMC5773577, “Novel Miniature Membrane Active Lipopeptidomimetics against Planktonic and Biofilm Embedded Methicillin-Resistant Staphylococcus aureus” (Scientific Reports, 2018).

Each structure is given as a SMILES string. In brackets after ≈: the same amount, converted by molar mass.

What all share (assay type): cell-based, Staphylococcus aureus
One assay deals with MRSA (ATCC 33591). Put plainly: microbe, parasite or virus in culture. The following applies: Staphylococcus aureus, MHB, 2–5 × 10^5 CFU/mL, 16–18 h, 37 °C, OD600, read-out: Minimum inhibitory concentration, MIC. The gist of the method: (§1)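 MIC values come from absorbance at 600 nm after 16–18 h at 37 °C with 180 rpm agitation. Inocula were mid-log cultures in MHB at 2–5 × 10^5 CFU/mL, exposed to 2-fold serial dilutions prepared in 0.2% BSA/0.01% acetic acid.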

The subject of the next assay is S. aureus (ISP479C). Put plainly: microbe, parasite or virus in culture. Conditions: Staphylococcus aureus, MHB, 2–5 × 10^5 CFU/mL, 16–18 h, 37 °C, OD600, read-out: Minimum inhibitory concentration, MIC. In a few lines: as §1
For another assay, the system named is S. aureus (ATCC 25923). Description: microbe, parasite or virus in culture. Conditions: Staphylococcus aureus, ATCC25923, MHB, 2–5 × 10^5 CFU/mL, 16–18 h, 37 °C, OD600, read-out: Minimum inhibitory concentration, MIC. The gist of the method:
as §1

A further assay deals with S. aureus (ATCC 29213). Description: microbe, parasite or virus in culture. Conditions: Staphylococcus aureus, ATCC29213, MHB, 2–5 × 10^5 CFU/mL, 16–18 h, 37 °C, OD600, duplicate, at least three days, read-out: Minimum inhibitory concentration, MIC. The gist of the method: as §1
Another assay concerns MRSA (ATCC 43300). Put plainly: microbe, parasite or virus in culture. The following applies: Staphylococcus aureus, MHB, 2–5 × 10^5 CFU/mL, 16–18 h, 37 °C, OD600, read-out: Minimum inhibitory concentration, MIC. In a few lines: as §1
The test system of a further assay is MRSA ATCC 33591. Put plainly: Membrane permeabilization assay, calcein-AM dye release, flow cytometry. Conditions: PBS, 37 °C, mean ± S.D., two days. As for the experimental part:
To assess the effect of designed peptidomimetics on membrane integrity of MRSA ATCC 33591 strain a calcein-AM dye release experiment was performed using the protocol described previously with slight modifications. Briefly, exponential phase MRSA ATCC 33591 culture was prepared in MHB medium as mentioned earlier and adjusted to OD600 = 1 (~10^9 CFU/mL) in PBS (10 mM sodium phosphate, 150 mM NaCl, pH 7.4). Thereafter, the cells were incubated at 37 °C with calcein-AM (2 μg/mL) in 10% MHB medium for 2 h. The calcein-loaded cells were washed once and re-suspended in PBS to OD600 = 0.5 (~10^8 CFU/mL). […] Subsequently, calcein fluorescence was measured via flow cytometry (Becton Dickinson (BD) FACS verse, San Jose, CA) with excitation and emission wavelengths of 488 nm and 530 ± 30 nm, respectively. For each sample, 10,000 cells were acquired. As a positive control, melittin (10 μM) was assayed under identical conditions. The experiment was repeated on two different days and mean ± S.D. is presented here. Corresponding to leakage a viability assay at 4 × MIC of respective test agents was also performed by incubating samples for 2 h at 37 °C and plating the diluted aliquots on BHI agar plates.

For assay [1], the system named is 48 h mature MRSA ATCC 33591 biofilms. Description: 48 h mature biofilm, confocal laser scanning microscopy (Live/Dead). The following applies: 24 h treatment at 20 × MIC (S-7 226 μg/mL, S-8 28 μg/mL, VAN 28 μg/mL), untreated 22 μm. As for the experimental part:
For the experiment, a protocol as described previously was used with slight modifications[24],[72]. Briefly, stationary phase MRSA ATCC 33591 culture ~10^5 CFU/mL in TSB medium (supplemented with 0.25% glucose and 0.5% NaCl) was added to the well of an 8-well chamber slide (200 μL). The slide was incubated at 37 °C without shaking for 24 h. After 24 h, the medium was discarded and the biofilm was washed with PBS once (10 mM sodium phosphate, 150 mM NaCl, pH 7.3). […] After 48 h (24 h + 24 h), the planktonic cells were removed and the biofilms were washed with PBS once. To the wells, 200 μL of PBS containing BacLight Live/Dead viability stain [SYTO9 (green fluorescence) and propidium iodide (PI) (red fluorescence) in equal volume] was added and the chamber slides were incubated at room temperature for 15 min in dark. After 15 min, the stain was removed and biofilms were washed with PBS once. To fix the biofilms, 200 μL of neutral buffered formalin (10% in PBS) was added to each well and the slides were kept at room temperature in dark for 30 min. After fixation, the biofilms were washed once, the chamber was removed and a cover slip was placed over the slide. The biofilms were viewed with an Olympus FluoView^TM FV1000 confocal laser scanning microscope (2D and z-stacking). […] For each sample, the biofilms thickness was also determined using z-scanning confocal microscopy. […]

For `CN[C@H](CC(C)C)C(=O)N[C@H]1C(=O)N[C@@H](CC(N)=O)C(=O)N[C@H]2C(=O)N[C@H]3C(=O)N[C@H](C(=O)N[C@H](C(=O)O)c4cc(O)cc(O)c4-c4cc3ccc4O)[C@H](O)c3ccc(c(Cl)c3)Oc3cc2cc(c3O[C@@H]2O[C@H](CO)[C@@H](O)[C@H](O)[C@H]2O[C@H]2C[C@](C)(N)[C@H](O)[C@H](C)O2)Oc2ccc(cc2Cl)[C@H]1O` [VAN, vancomycin], the MIC was found to be 1.4 µg/mL (≈ 0.966 µM) in the assay with MRSA (ATCC 33591); 0.3 µg/mL (≈ 0.207 µM) in the assay on S. aureus (ISP479C); 1.4 µg/mL (≈ 0.966 µM) with S. aureus (ATCC 25923); 0.7 µg/mL (≈ 0.483 µM) in the assay on S. aureus (ATCC 29213); 0.7 µg/mL (≈ 0.483 µM) in the assay on MRSA (ATCC 43300). The “% calcein leakage” value is “did not cause any leakage” with MRSA ATCC 33591 (at 4 × MIC, 2 min incubation); 11.9 ± 9.2% in the assay on MRSA ATCC 33591 (at 4 × MIC, 2 h incubation); 1.6 ± 2.3% in the assay with MRSA ATCC 33591 (at MIC, 2 min incubation). This compound came in with a biofilm thickness in assay [1] of 14 μm.
